Data set [1] in a line: Cytotoxicity in cultured L6 rat myoblast cells. In kind it is cell-based. The following applies: rat, L6 rat myoblast cells.
Another data set relates to L6 rat myoblast cells. The data set can be described thus: Cytotoxicity in cultured L6 rat myoblast cells. In kind it is cell-based. The following applies: read-out: Cytotoxicity IC50; cultured L6 rat myoblast cells.
Data set [2] relates to Trypanosoma brucei rhodesiense STIB900. The data set can be described thus: In vitro antitrypanosomal assay, T. b. r. STIB900. In kind it is cell-based. The following applies: RHODESIENSE|STIB900, read-out: T. b. r. IC50.
Another data set relates to Plasmodium falciparum K1. Kind of data set: microbe, parasite or virus in culture. The following applies: K1, read-out: P. f. IC50.

The values that follow come from PMC3813006 (Bioorganic & medicinal chemistry, 2009).

pIC50: −log10 of the molar value.

By pIC50 is commonly meant the IC50 on a negative log10 scale, so that one unit is a factor of ten. As for `N=C(N)c1ccc(-c2ccc(-c3ccc(C(=N)N)cc3)cc2)cc1` [6a], the pIC50 in data set [1] is 4.66.
Turning to `N=C(N)c1ccc(-c2ccc(-c3ccc(C(=N)N)cc3)nn2)cc1` [15b], in the data set on L6 rat myoblast cells, the pIC50 was 4.50.
Consider `N=C(N)c1ccc(-c2ccc(-c3ccc(C(=N)N)cn3)o2)cc1` [3a, azafuramidine], for which the pIC50 (in data set [2]; with Plasmodium falciparum K1) was 8.19 throughout.
